From PMC10251509, “Ultrafast Fragment Screening Using Photo-Hyperpolarized (CIDNP) NMR” (Journal of the American Chemical Society, 2023)
Read-outs that look alike come from different tables or passages of the source.

Experiments:
Format in all cases: binding
[1] = target: T1, PIN1 (Homo sapiens, UniProt Q13526); assay: [15N,1H]-HSQC hit validation (chemical shift perturbations) on 15N-labeled PIN1; conditions: 50 μM 15N-labeled PIN1, 200 μM fragment
T1 construct: polyhistidine (N); made in house; host or cells: Escherichia coli BL21 (DE3)
Protocol: As proposed in the theoretical part, the photo-CIDNP traces were recorded in the presence and absence of PIN1. The peak intensity and chemical shifts were analyzed pairwise to identify the hits. […] The reference apo-PIN1 sample was spiked with 1.9 μL of DMSO to compensate for the DMSO that is introduced upon fragment addition, as the fragments are stored in stock solutions of 5 mM 90% DMSO-d6 and 10% D2O.
For the control binding experiments using ligand-induced chemical shift perturbation analysis, standard [^15N, ^1H]-HSQC spectra were measured. […] Processing was done with a shifted cosine window function for both dimensions. […] The spinlock times were set at 10 and 400 ms.

[2] = target: T1, PIN1; assay: [15N,1H]-HSQC titration series with increasing ligand concentration, PIN1; conditions: values with * could not be fitted to a maximum, Kd most likely higher
Protocol: (B) Chemical shift perturbation titration studies of the compounds with ^15N-labeled PIN1 measured by [^15N,^1H]-HSQC experiments and shown for residues T154 and A124 in the presence of increasing ligand concentrations. […]
For the control binding experiments using ligand-induced chemical shift perturbation analysis, standard [^15N, ^1H]-HSQC spectra were measured. The detailed conditions for the 2D experiments acquired at 600 MHz ^1H NMR frequency were the 100 μM ^15N-labeled PDZ2 domain in the absence and presence of equimolar peptide in PDZ2 buffer and at a temperature of 298 K and 50 μM ^15N-labeled PIN1 in the absence and presence of 200 μM ligands in PIN1 buffer and at a temperature of 298 K, respectively. […] The data was zero–filled to 2048 points in the direct proton dimension and to 256 points in the ^15N–dimension. Processing was done with a shifted cosine window function for both dimensions. […] The spinlock times were set at 10 and 400 ms. The STD experiments were measured at 298 K with 16,384 (tmax (^1H) = 974 ms) complex points and 512 scans per increment.
Figure S7: Chemical shift perturbation-based Kd determination of individual compounds binding to PIN1. The chemical shift displacement of the 15N-1H moieties of A124 (black) and T154 (red) PIN1 (y-axis) in dependence on the compound […]
The fits to the titrations are highlighted by a line and the Kd extracted is given in mM. Compound 13 titration series ranges 0, 80, 100, 200, 300, 600, 1000, […]
concentration; compounds 3, 10, and 11 range 0, 200, 500, 1000, 2000, 3000 µM concentration and all the samples contained 80 µM of PIN1 protein and were measured in PIN1 buffer at 298K. […]

[3] = target: T1, PIN1; assay: saturation transfer difference (STD) NMR, PIN1; set-up: key to STD: The observation of ligand signals in the STD NMR spectra detects a protein–ligand interaction; (+); the absence of a signal fails to detect protein–ligand interaction (−); conditions: 200 μM ligand with 20 μM protein
Protocol: (§1) For comparison, the signal decay during a T1ρ NMR experiment was measured at the same sample conditions as the photo-CIDNP experiments (Table 2). The signal decay between two T1ρ relaxation delays of 10 and 400 ms is measured in the absence and presence of the PIN1 protein. The increase in signal decay is calculated as the ratio of the integral’s ratio, i.e., (Γ400ms/Γ10ms)PL/(Γ400ms/Γ10ms)L. The most affine binders, compounds 1 and 13, show a significant reduction of the T1ρ decay ratio upon PIN1 addition, witnessing an increase in the relaxation decay. […] The signal-to-noise of the T1ρ spectra were ca. 300 for a number of transients of 512, corresponding to a measurement time of 25 min, while the photo-CIDNP experiments provided a signal-to-noise of ca. 100 for a single-scan experiment corresponding to a two second’s experiment. […] The signal-to-noise of the STD NMR experiments[1] was only 25 and 19 for compounds 1 and 13, respectively, after 50 min measurement corresponding to a 512 transient’s experiment.
(§2) For the control binding experiments using ligand-induced chemical shift perturbation analysis, standard [^15N, ^1H]-HSQC spectra were measured. The detailed conditions for the 2D experiments acquired at 600 MHz ^1H NMR frequency were the 100 μM ^15N-labeled PDZ2 domain in the absence and presence of equimolar peptide in PDZ2 buffer and at a temperature of 298 K and 50 μM ^15N-labeled PIN1 in the absence and presence of 200 μM ligands in PIN1 buffer and at a temperature of 298 K, respectively. Typically, 220 (t1,max (^15N) = 47.6 ms) × 1024 (t2,max (^1H) = 60.8 ms) complex points, an interscan delay of 0.8 s, and 12 scans per increment were measured. The data was zero–filled to 2048 points in the direct proton dimension and to 256 points in the ^15N–dimension. Processing was done with a shifted cosine window function for both dimensions. […] The spinlock times were set at 10 and 400 ms. The STD experiments were measured at 298 K with 16,384 (tmax (^1H) = 974 ms) complex points and 512 scans per increment. The on-resonance saturation pulse was set at 0 ppm, and the off-resonance saturation pulse was set to 40 ppm with a saturation time of 1 s.

[4] = target: T1, PIN1; assay: T1ρ relaxation NMR experiment, PIN1
Protocol: as §1, §2

T1 sequence (Q13526 whole entry, the tested form may be a part): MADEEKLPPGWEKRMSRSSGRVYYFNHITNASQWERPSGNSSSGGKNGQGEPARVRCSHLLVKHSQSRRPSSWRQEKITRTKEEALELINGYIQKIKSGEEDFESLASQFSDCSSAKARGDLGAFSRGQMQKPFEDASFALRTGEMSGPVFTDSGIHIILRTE

Cc1cccc(-c2nc(C)c(C(=O)O)[nH]2)c1 [Compound 13, reference compound]
fragment-induced CSPs in [15N,1H]-HSQC [1]: strong CSPs
median CSP ([1]; median only of signals showing CSP): 0.119
Kd ([2]; fit of CSP build-up of residue A124, read-out: Kd A124): 4.5 mM
Kd ([2]; fit of CSP build-up of residue T154, read-out: Kd T154): 1.7 mM
STD [3]: +
STD NMR observation ([3]; 512 transients): shows a signal
T1ρ decay ratio ([4]; 200 μM ligand, ±20 μM protein, (Γ400ms/Γ10ms)PL/(Γ400ms/Γ10ms)L): 0.45
T1ρ decay ratio ([4]; low concentration, same sample conditions: 20 μM ligand (compound 1: 5 μM), ±2 μM PIN1): 0.76
